Laboratory results as given in US20020102533A1, “Hepatitis C protease exosite for inhibit or design” (priority 2000, published 2002).
Where a SMILES comes first, the peptide text is derived from it. Where no end group is shown, it is not given here. [ ]: non-standard residue; d: D form. The star is where a group is joined. Dip = N[C@H](C(=O)O)C(c1ccccc1)c1ccccc1; X1 = C=CCC(N*)B1OC2CC3CC(C3(C)C)C2(C)O1; Cha = N[C@@H](CC1CCCCC1)C(=O)O; AlgCF2CF3 = not defined here; Abu = CC[C@H](N)C(=O)O

Experiments:
[1] = target: T1, HCV NS3 protease, genotype 1a (Hepatitis C virus genotype 1a, UniProt P26664); type: biochemical; details: substrate B
T1 construct: NS3 protease catalytic domain (amino acids 1 to 192); MGAQH expression leader (5 aa), or alternatively the 15 aa His tag […]; made in house; host or cells: E. coli BL21 (DE3)
Procedure: (§1) Endpoint HPLC based HCV protease assay: HCV protease (5 nM) was incubated in 50 mM Tris pH 7.5, 0.1% maltoside, 5 mM DTT and appropriate amounts of glycerol, NS4A peptide, and substrate. Routine assays were 100 μl in volume containing 15% or 50% glycerol, 5.0 μM NS4A peptide and 5.0 μM substrate. Reactions were run at room temperature (˜22° C.) and quenched by the addition of 4 μl of 10% TFA before 10% of the substrate was consumed. Incubation times were 20 minutes for the ester substrate (Peptide Substrate A) and 80 minutes for the P6-P7′ amide substrate (Peptide Substrate B). […] Incubation times were 90 min. Samples, 50 μl, were injected onto an Hewlett Packard 1090 Liquid Chromatograph containing a Dynamax-60A C18 column. The column was eluted with a linear gradient from 10% acetonitrile to 45% acetonitrile in water. All solvents contained 0.1% TFA. A flow rate of 1 ml/min was used. […] The product peaks were detected by fluorescence excitation at 350 nm and emission at 500 nm.
(§2) Footnote a for Table 1 references the assay condiditions: 1) Substrate A=P6-P3′, HCV protease (4.0 nM) was incubated with various concentrations of truncated analogs of Q9692 in 50 mM Tris buffer, pH 7.0, 15% glycerol, 0.1% maltoside, 5 mM DTT and 10 μM NS4A peptide in a 96-well microtiter plate at room temperature. After 15 minutes catalysis was initiated by the addition of Ac-D-E-D(EDANS)-E-E-Abuψ[COO]-A-S-K(DABCYL)—NH2 (final concentration 5.0 μM in a total reaction volume of 200 μl). Enzymatic activity was monitored by measuring the increase in fluorescence with time on a Perkin Elmer LS50B luminescence spectrometer (excitation 350 nm, emission 500 nm, both slits 10 nm). […] Assays were 100 μl in volume, reactions were run at room temperature (˜22 C) for 80 minutes (<10% of the substrate was consumed). The addition of 4 μl of 10% TFA quenched the reactions. Quantitation of hydrolysis products was determined by measuring fluorescent peak areas following HPLC. Products were detected by excitation at 350 nm and measuring emission at 500 nm. Aliquots (50 μl) of quenched enzymatic reactions were injected on an Hewlett Packard 1090 HPLC equipped with a ¼ inch Dynamex 60A C18 column. A linear gradient from 10% acetonitrile:H2O to 45% acetonitrile:H2O was run over a period of 15 min at a flow rate of 1.0 ml/min. All solvents contained 0.1% TFA.
Comparison of the effects of Q9692 on the hydrolysis of a P6-P3′ ester substrate (FIG. 2A) and a P6-P7′ substrate (FIG. 2B) and P6-P3′ amide substrate (FIG. 2C) were determined. For substrates A and B1 Concentrations of Q9692 are 0 (circles), 1 μM (squares), 2 μM (diamonds) and 4 μM (triangles). Assay conditions: HCV protease (5 nM) was incubated in 50 mM Tris buffer at pH 7.0, 15% glycerol, 0.1% maltoside, 5 mM DTT, 10 μM NS4A peptide, and specified concentration of substrate. Assays were 100 μl in volume and reactions were run at room temperature (22 C) and quenched by the addition of 4 μl of 10% TFA before 10% of the substrate was consumed. Incubation times were 20 minutes for the ester substrate and 80 minutes for the amide substrate. Hydrolysis products were quantitated by measuring fluorescent peak areas following HPLC and detection by excitation at 350 nm and measuring emission at 500 nm. Aliquots (50 μl) of quenched enzymatic reactions were injected on an Hewlett Packard 1090 HPLC equipped with a ¼ inch Dynamex 60A C18 column.

[2] = target: T1, HCV NS3 protease, genotype 1a; assay: biochemical; type: biochemical; details: for (S = P6-P3′) Inhibition(+) / Activation (−): substrate A
Procedure: as §1
Continuous fluorescence-based HCV protease assay: This asay was a modified version of method of Taliani (Taliani, M.; et al. Anal. Biochem. 240, 60-67, 1996) using Substrate A (Ac-D-E-D(EDANS)-E-E-Abuψ[COO]-A-S-K(DABCYL)—NH2). Assays were run in a 96-well microtiter plates using a Perkin Elmer Luminescence Spectrometer LS50B exciting at 350 nm (10 nm slit) and emitting at 500 nm (10 nm slit). In a typical assay the protease (1-4 nM) was incubated with 10 μM NS4a peptide in 50 mM Tris pH 7.0, 5.0 mM DTT, 50% glycerol, and […] for 15 min. Catalysis was initiated by the addition of Substrate A (final concentration 5.0 μM). Assays were also run under conditions where 15% glycerol, 0.1% Maltoside were substituted for 50% glycerol and 5% CHAPS. Enzymatic activity was monitored by measuring the increase in fluorescence with time using excitation wavelength of 350 nm and an emission wavelength of 500 nm. Both slit widths were 10 nm. Inhibition constants were determined from a nonlinear least squares fit of the data to the equation Vi/Vo=1/(1+[I]/Kiapp). Where Vi is the velocity measured in the presence of inhibitor (inhibitors were introduced with the NS4a peptide) and Vo is the velocity of controls. The thermodynamic Ki was determined from Kiapparent via the relationship for competitive kinetics: Ki=Kiapp/(1+[S]/Km) where [S] is the substrate concentration.
as §2

[3] = target: T2, HCV protease (NS3) (Hepatitis C virus genotype 1a, UniProt P26664); type: binding; details: added to NS3 alone; excitation 280 nm
T2 construct: NS3 protease catalytic domain (amino acids 1 to 192); MGAQH expression leader (5 aa), or alternatively the 15 aa His tag MRGSHHHHHHMGAQH; made in house; host or cells: E. coli BL21 (DE3)
Procedure: Intrinsic fluorescence studies: Assays were conducted in 0.5 ml fluorescent cuvettes (0.4 ml total volume). […] Fluorescence spectra were obtained by exiting at 280 nm (10 nm slit) and scanning the emission profile from 300 to 400 nm (10 nm slit) at 1 nm s^−1.
Fluorescence spectrum of HCV protease (0.45 μM) in 50 mM Tris buffer, pH 7.0, containing 15% glycerol, and 0.10% maltoside were measured over a range of 300-400 nm using an excitation wavelength of 280 nm. Both excitation and emission slit widths were 10 nm and the scan rate was 1.0 nm sec^−1.

[4] = target: HCV protease; details: cited from earlier work
[5] = target: HCV protease (Hepatitis C virus genotype 1b, UniProt P26663); details: corresponding peptides as substrates; 50 mM Hepes pH 7.5, 1% CHAPS, 15% glycerol, NS4a cofactor peptide 80 μM; read-out: Ki; cited from earlier work

Molecule | (S = P6-P7′) Inhibition (+) / Activation (−) [1] | Kd [2] [µM] | (S = P6-P3′) Inhibition(+) / Activation (−) [2] | further results
CC(=O)N[C@@H](CCC(=O)O)C(=O)N[C@@H](CC1CCCCC1)C(=O)N[C@@H](CS)C(=O)O [Q295, Ac-Glu-Cha-Cys-OH] (Ac-Glu-[Cha]-Cys-OH) | + | 300 | + | 
KKGSVVIVGRIVLSGKPAIIPKK [NS4a] |  |  |  | increase in intrinsic fluorescence of the protease (NS3) [3]: 25%
Asp-Glu-Val-Val-Pro-AlgCF2CF3 (DEVVP-AlgCF2CF3; reading uncertain; also: printed as Asp-Glu-Val-Val-Pro-AlgCF2CF3) [Q9714] |  |  |  | Dixon plots of 1/V versus Q9717 concentration ([2]; 5 μM substrate spanning P6-P3′): parallel lines
Ac-Asp-(D)Glu-Chg-Val-X-Nva—OH |  |  |  | Ki [4]: 28 nM
C=CCC(NC(=O)[C@H](CC1CCCCC1)NC(=O)[C@H](CCC(=O)O)NC(=O)[C@@H](NC(=O)[C@H](CCC(=O)O)NC(=O)[C@H](CC(=O)O)NC(C)=O)C(c1ccccc1)c1ccccc1)B1OC2CC3CC(C3(C)C)C2(C)O1 (stereo partly drawn) [Q9716, Ac-Asp-Glu-Dpa-Glu-Cha-boroAlg—C10H16] (Ac-DE[Dip]E[Cha]-X1) |  |  |  | Ki [2]: ~5 nM
CC(=O)N[C@@H](CC(=O)O)C(=O)N[C@@H](CCC(=O)O)C(=O)N[C@H](C(N)=O)C(c1ccccc1)c1ccccc1 [Q230, Ac-Asp-Glu-Dpa-NH2] (Ac-Asp-Glu-[Dip]-NH2) | + | 400 | + | 
CC(=O)N[C@H](C(=O)N[C@@H](CCC(=O)O)C(=O)N[C@@H](CC1CCCCC1)C(N)=O)C(c1ccccc1)c1ccccc1 [Q236, Ac-Dpa-Glu-Cha-NH2] (Ac-[Dip]-Glu-[Cha]-NH2) | − | 66 | − | 
DCSTPC [Ac-DCSTPC—OH] |  |  |  | Ki [5]: 180000 nM
DEMEEC [Ac-DEMEEC—OH] |  |  |  | Ki [5]: 600 nM
CC(=O)N[C@@H](CC(=O)O)C(=O)N[C@@H](CCC(=O)O)C(=O)N[C@H](C(=O)N[C@@H](CCC(=O)O)C(=O)N[C@@H](CC1CCCCC1)C(N)=O)C(c1ccccc1)c1ccccc1 [Q228, Ac-Asp-Glu-Dpa-Glu-Cha-NH2] (Ac-DE[Dip]E[Cha]-NH2) | + | 25 | − | 
CC(=O)N[C@H](C(=O)N[C@@H](CCC(=O)O)C(=O)N[C@@H](CC1CCCCC1)C(=O)N[C@@H](CS)C(=O)O)C(c1ccccc1)c1ccccc1 [Q296, Ac-Dpa-Glu-Cha-Cys-OH] (Ac-[Dip]E[Cha]C-OH) | − | 1.5 | − | 
Ac-EDVW[Abu]C-OH |  |  |  | Ki [5]: 1400 nM
CC(=O)N[C@@H](CC(=O)O)C(=O)N[C@@H](CCC(=O)O)C(=O)N[C@H](C(=O)N[C@@H](CCC(=O)O)C(N)=O)C(c1ccccc1)c1ccccc1 [Q229, Ac-Asp-Glu-Dpa-Glu-NH2] (Ac-DE[Dip]E-NH2) | + | 240 | + | 
CC(=O)N[C@@H](CCC(=O)O)C(=O)N[C@H](C(=O)N[C@@H](CCC(=O)O)C(=O)N[C@@H](CC1CCCCC1)C(N)=O)C(c1ccccc1)c1ccccc1 [Q240, Ac-Glu-Dpa-Glu-Cha-NH2] (Ac-E[Dip]E[Cha]-NH2) | − | 80 | − | 
CC(=O)N[C@@H](CCC(=O)O)C(=O)N[C@H](C(=O)N[C@@H](CCC(=O)O)C(=O)N[C@@H](CC1CCCCC1)C(=O)N[C@@H](CS)C(=O)O)C(c1ccccc1)c1ccccc1 [Q297, Ac-Glu-Dpa-Glu-Cha-Cys-OH] (Ac-E[Dip]E[Cha]C-OH) | + | 40 | − | 
